Columns and labels:
[1] = biological target: T1, mGAT2 (Mus musculus, UniProt P31651); conditions: cited from earlier work; for remaining [^3H]GABA uptake mGAT2: in presence of 100 μM compound
T1 construct: expressed in transfected cells; host or cells: HEK293
T1 sequence (P31651 1-614): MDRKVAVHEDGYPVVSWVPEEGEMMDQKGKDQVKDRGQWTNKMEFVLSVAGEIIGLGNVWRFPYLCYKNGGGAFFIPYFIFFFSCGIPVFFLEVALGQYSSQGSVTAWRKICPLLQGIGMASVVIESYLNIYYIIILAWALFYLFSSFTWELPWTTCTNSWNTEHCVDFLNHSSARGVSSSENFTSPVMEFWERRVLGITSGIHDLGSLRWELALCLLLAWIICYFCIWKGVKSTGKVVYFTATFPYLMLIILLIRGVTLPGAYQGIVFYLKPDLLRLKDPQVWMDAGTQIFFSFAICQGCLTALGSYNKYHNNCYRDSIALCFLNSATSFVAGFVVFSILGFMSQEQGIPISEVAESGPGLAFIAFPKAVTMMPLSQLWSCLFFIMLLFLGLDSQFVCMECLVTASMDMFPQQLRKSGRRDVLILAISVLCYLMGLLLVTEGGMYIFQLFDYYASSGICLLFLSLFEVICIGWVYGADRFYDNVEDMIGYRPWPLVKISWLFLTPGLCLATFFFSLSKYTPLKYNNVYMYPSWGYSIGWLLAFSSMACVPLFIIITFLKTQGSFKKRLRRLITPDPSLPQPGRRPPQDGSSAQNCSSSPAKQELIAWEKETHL

[2] = biological target: T2, mGAT3 (Mus musculus, UniProt P31649); conditions: cited from earlier work
T2 construct: expressed in transfected cells; host or cells: HEK293
T2 sequence (P31649 1-602): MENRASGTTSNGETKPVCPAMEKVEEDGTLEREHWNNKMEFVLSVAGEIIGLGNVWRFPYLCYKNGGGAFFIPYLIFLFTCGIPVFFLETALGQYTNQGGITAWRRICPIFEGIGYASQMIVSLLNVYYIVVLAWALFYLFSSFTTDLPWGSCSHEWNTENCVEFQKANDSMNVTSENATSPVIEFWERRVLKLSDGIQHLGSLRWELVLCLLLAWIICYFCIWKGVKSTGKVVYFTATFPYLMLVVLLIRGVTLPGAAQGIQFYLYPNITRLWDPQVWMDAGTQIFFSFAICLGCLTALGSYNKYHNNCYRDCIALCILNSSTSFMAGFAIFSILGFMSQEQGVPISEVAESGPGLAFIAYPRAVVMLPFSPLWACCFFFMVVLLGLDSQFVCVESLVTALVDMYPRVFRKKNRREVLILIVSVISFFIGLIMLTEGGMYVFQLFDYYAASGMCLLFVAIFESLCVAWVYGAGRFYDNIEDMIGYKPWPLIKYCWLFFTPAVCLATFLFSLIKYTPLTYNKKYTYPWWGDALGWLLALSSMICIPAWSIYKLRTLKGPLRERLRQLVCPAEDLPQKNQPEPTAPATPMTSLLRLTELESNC

[3] = biological target: T3, mGAT4 (Mus musculus, UniProt P31650); conditions: in presence of 100 μM compound; cited from earlier work
T3 construct: expressed in transfected cells; host or cells: HEK293
T3 sequence (P31650 1-627): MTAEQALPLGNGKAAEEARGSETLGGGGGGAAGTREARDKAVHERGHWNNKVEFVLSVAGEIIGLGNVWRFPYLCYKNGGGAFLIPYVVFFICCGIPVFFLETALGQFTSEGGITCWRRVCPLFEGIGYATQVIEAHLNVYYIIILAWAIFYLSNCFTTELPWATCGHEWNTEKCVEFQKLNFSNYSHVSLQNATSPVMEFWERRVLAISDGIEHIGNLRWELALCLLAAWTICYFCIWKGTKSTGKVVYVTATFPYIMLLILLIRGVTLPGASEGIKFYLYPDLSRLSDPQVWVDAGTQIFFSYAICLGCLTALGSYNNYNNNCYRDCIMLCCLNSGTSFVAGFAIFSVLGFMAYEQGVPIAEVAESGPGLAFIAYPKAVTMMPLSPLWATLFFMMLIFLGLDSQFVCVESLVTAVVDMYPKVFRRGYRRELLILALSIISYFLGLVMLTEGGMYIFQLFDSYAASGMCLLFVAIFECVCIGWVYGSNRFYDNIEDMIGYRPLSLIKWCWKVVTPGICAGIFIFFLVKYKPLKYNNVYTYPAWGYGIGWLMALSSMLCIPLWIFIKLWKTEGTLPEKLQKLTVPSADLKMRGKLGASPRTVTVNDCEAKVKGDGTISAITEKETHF

[4] = biological target: T3, mGAT4; experiment: GABA uptake inhibition at mGAT4 with varied preincubation time; assay type: cell-based
[5] = biological target: T2, mGAT3; experiment: [^3H]GABA uptake assay, HEK293 cells expressing mGAT3; assay type: cell-based; conditions: for IC50: [^3H]GABA uptake, pIC50±SEM; for remaining activity at 100 µM: HEK293, in presence of 100 μM compound
Method in brief: (§1)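 HEK293 cells expressing mouse GATs preincubated 25 min at 37 °C with compound in Krebs buffer pH 7.2, then [3H]GABA added: 8 nM plus 32 nM unlabeled for 4 min (mGAT1/3/4), 20 nM plus 20 nM for 10 min (mGAT2). Filtration, scintillation counting; nonspecific uptake with 10 mM (mGAT1/3/4) or 100 mM GABA (mGAT2); pIC50.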

[6] = biological target: T4, mGAT1 (Mus musculus, UniProt P31648); experiment: MS Binding Assay with NO711 as native MS marker; conditions: for Ki: MS Binding Assay, NO711 marker, pKi±SEM, read-out: pK i mGAT1 (converted); for remaining activity at 100 µM: in presence of 100 μM compound, read-out: remaining specific NO711 binding (mGAT1)
T4 construct: expressed in transfected cells; host or cells: HEK293
Method in brief: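 Competitive MS binding using membranes from HEK293 cells stably expressing mGAT1, with 10 nM unlabeled NO711 as marker and compounds at 7 concentrations. Nonspecific binding defined with 100 mM GABA. Bound NO711 eluted after filtration and quantified by LC-ESI-MS/MS against [2H10]NO711; Ki derived.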

[7] = biological target: T3, mGAT4; experiment: [^3H]GABA uptake assay, HEK293 cells expressing mGAT4; assay type: cell-based; conditions: for IC50: [^3H]GABA uptake, pIC50±SEM; for remaining activity at 100 µM: HEK293, in presence of 100 μM compound
Method in brief: as §1

[8] = biological target: T1, mGAT2; experiment: [^3H]GABA uptake assay, HEK293 cells expressing mGAT2; assay type: cell-based; conditions: HEK293; in presence of 100 μM compound
Method in brief: as §1

[9] = biological target: T4, mGAT1; experiment: [^3H]GABA uptake assay, HEK293 cells expressing mGAT1; assay type: cell-based; conditions: for remaining activity at 100 µM: HEK293, in presence of 100 μM compound
Method in brief: as §1

IC50 [7] [µM]	remaining activity at 100 µM [8] [%]	remaining activity at 100 µM [9] [%]	remaining activity at 100 µM [6] [%]	remaining activity at 100 µM [5] [%]	remaining activity at 100 µM [7] [%]	Compound	also measured
–	–	–	–	–	–	COc1ccc(C(OCCN2CCC[C@H](C(=O)O)C2)(c2ccc(OC)cc2)c2ccc(OC)cc2C)cc1 [DDPM‐859]	pIC50 mGAT2 ([1]; [^3H]GABA uptake, pIC50±SEM): 4.12±0.08; pIC50 mGAT3 ([2]; [^3H]GABA uptake, pIC50±SEM): 4.85±0.04
–	–	–	–	–	–	Cc1ccsc1C(=CCCN1CCC[C@@H](C(=O)O)C1)c1sccc1C [Tiagabine]	remaining [^3H]GABA uptake mGAT2 [1]: 50%; remaining [^3H]GABA uptake mGAT4 [3]: 73%; remaining [^3H]GABA uptake mGAT3 ([2]; in presence of 100 μM compound): 64%
–	–	–	–	–	–	COc1ccc(C(OCCN2CCC[C@H](C(=O)O)C2)(c2ccc(OC)cc2)c2ccc(OC)cc2)cc1 [(S)‐SNAP‐5114, reference compound]	remaining [^3H]GABA uptake mGAT2 [1]: 56%; Normalized pIC50 mGAT4 ([4]; preincubation time 10 min, experiments 1-3, relative to 25 min = 100.00): 97.20; Normalized pIC50 mGAT4 ([4]; preincubation time 25 min, experiments 1-3 (reference)): 100.00; Normalized pIC50 mGAT4 ([4]; preincubation time 25 min, experiments 4-6 (reference)): 100.00; Normalized pIC50 mGAT4 ([4]; preincubation time 60 min, experiments 1-3, relative to 25 min = 100.00): 101.23; Normalized pIC50 mGAT4 ([4]; preincubation time 60 min, experiments 4-6, relative to 25 min = 100.00): 103.79
3.72	64.2	64.6	–	–	–	COc1ccc(C(OCCN2CCCC(C(=O)O)C2)(c2ccc(OC)cc2)c2ccc(C(C)=O)cc2)cc1 (racemic) [5 b, rac ‐1‐{2‐[(4‐Acetylphenyl)bis(4‐methoxyphenyl)methoxy]ethyl}piperidine‐3‐carboxylic acid]	IC50 [5]: 57.5 µM; Ki [6]: 30.9 µM
13.8	85.2	96.5	71.4	–	–	COc1ccc(C(OCCN2CCCC(C(=O)O)C2)(c2ccc(OC)cc2)c2ccc(C(=O)O)cc2)cc1 (racemic) [5 e, rac ‐1‐{2‐[(4‐Carboxyphenyl)bis(4‐methoxyphenyl)methoxy]ethyl}piper‐idine‐3‐carboxylic acid]	IC50 [5]: 57.5 µM
13.8	50.1	–	–	–	–	COc1ccc(C(OCCN2CCC[C@@H](C(=O)O)C2)(c2ccc(C=O)cc2)c2ccc(OC)cc2)cc1 [(R)‐5 a]	IC50 [5]: 33.9 µM; Ki [6]: 12.3 µM; IC50 ([9]; [^3H]GABA uptake, pIC50±SEM): 35.5 µM
17	55.2	70.5	74.1	52.2	–	COCc1ccc(C(OCCN2CCCC(C(=O)O)C2)(c2ccc(COC)cc2)c2ccc(OC)cc2)cc1 (racemic) [5 h, rac‐ 1‐(2‐{Bis[4‐(methoxymethyl)phenyl][4‐methoxyphenyl]methoxy}‐ethyl)piperidine‐3‐carboxylic acid]	–
–	67.4	66.9	90.9	49.3	57.4	CCOC(=O)C1CCCN(CCOC(c2ccc(CNC(C)(C)C(=O)OCC)cc2)(c2ccc(OC)cc2)c2ccc(OC)cc2)C1 (racemic) [12 q, rac‐ Ethyl 1‐{2‐[(4‐{[(1‐ethoxy‐2‐methyl‐1‐oxopropan‐2‐yl)amino]methyl}‐phenyl)bis(4‐methoxyphenyl)methoxy]ethyl}piperidine‐3‐carboxylate]	–
64.6	79.7	76	97	64.2	–	COc1ccc(C(OCCN2CCCC(C(=O)O)C2)(c2ccc(CN3CCCC3=O)cc2)c2ccc(OC)cc2)cc1 (racemic) [5 r, rac‐ 1‐[2‐(Bis{4‐methoxyphenyl}{4‐[(2‐oxopyrrolidin‐1‐yl)methyl]phenyl}‐methoxy)ethyl]piperidine‐3‐carboxylic acid]	–
–	69.5	94.4	82.3	89.1	56.3	COc1ccc(C(OCCN2CCCC(C(=O)O)C2)(c2ccc(CNCCC(=O)O)cc2)c2ccc(OC)cc2)cc1 (racemic) [5 o, rac‐ 1‐{2‐[(4‐{[(2‐Carboxyethyl)amino]methyl}phenyl)bis(4‐methoxy‐phenyl)methoxy]ethyl}piperidine‐3‐carboxylic acid]	–
–	76.7	52.4	84.9	59.3	67.6	CCOC(=O)C1CCCN(CCOC(c2ccc(CNCCCC(=O)O)cc2)(c2ccc(OC)cc2)c2ccc(OC)cc2)C1 (racemic) [12 s, rac ‐4‐{[4‐({2‐[3‐(Ethoxycarbonyl)piperidin‐1‐yl]ethoxy}bis{4‐methoxy‐phenyl}methyl)benzyl]amino}butanoic acid]	–
–	101	100	96.9	94	96.5	COc1ccc(C(OCCN2CCCC(C(=O)O)C2)(C(=O)O)c2ccc(OC)cc2)cc1 (racemic) [5 k, rac ‐1‐{2‐[Carboxybis(4‐methoxyphenyl)methoxy]ethyl}piperidine‐3‐carboxylic acid]	–
